Source: the NIST ThermoML archive (doi:10.1016/j.jct.2006.07.022)

Experiment: xn = mol fraction of the nth substance listed
Details: 101 kPa, Liquid

CN(C)C=O [dimethylformamide] + Cc1ccccc1
Details | mass density [kg/m3]
293.15 K, x2 = 0 | 948.58
293.15 K, x2 = 0.0587 | 943.21
293.15 K, x2 = 0.0924 | 940.15
293.15 K, x2 = 0.1596 | 934.15
293.15 K, x2 = 0.2106 | 929.65
293.15 K, x2 = 0.2706 | 924.43
293.15 K, x2 = 0.3202 | 920.16
293.15 K, x2 = 0.3823 | 914.89
293.15 K, x2 = 0.4504 | 909.2
293.15 K, x2 = 0.5171 | 903.73
293.15 K, x2 = 0.5636 | 899.97
293.15 K, x2 = 0.7212 | 887.54
293.15 K, x2 = 0.7647 | 884.19
293.15 K, x2 = 0.8114 | 880.65
293.15 K, x2 = 0.8715 | 876.16
293.15 K, x2 = 0.9412 | 871.04
303.15 K, x2 = 0 | 939.46
303.15 K, x2 = 0.0451 | 935.32
303.15 K, x2 = 0.1012 | 930.23
303.15 K, x2 = 0.1674 | 924.31
303.15 K, x2 = 0.2151 | 920.11
303.15 K, x2 = 0.2855 | 913.98
303.15 K, x2 = 0.3484 | 908.59
303.15 K, x2 = 0.4188 | 902.65
303.15 K, x2 = 0.4876 | 896.96
303.15 K, x2 = 0.5508 | 891.8
303.15 K, x2 = 0.6134 | 886.77
303.15 K, x2 = 0.6745 | 881.95
303.15 K, x2 = 0.7512 | 876
303.15 K, x2 = 0.8121 | 871.36
303.15 K, x2 = 0.8614 | 867.66
303.15 K, x2 = 0.9318 | 862.47
313.15 K, x2 = 0 | 930.12
313.15 K, x2 = 0.051 | 925.45
313.15 K, x2 = 0.1112 | 920.02
313.15 K, x2 = 0.1984 | 912.27
313.15 K, x2 = 0.2511 | 907.67
313.15 K, x2 = 0.3147 | 902.18
313.15 K, x2 = 0.3784 | 896.76
313.15 K, x2 = 0.4322 | 892.26
313.15 K, x2 = 0.5053 | 886.23
313.15 K, x2 = 0.5721 | 880.8
313.15 K, x2 = 0.6427 | 875.17
313.15 K, x2 = 0.7077 | 870.09
313.15 K, x2 = 0.7812 | 864.43
313.15 K, x2 = 0.8419 | 859.84
313.15 K, x2 = 0.8932 | 856.01
313.15 K, x2 = 0.9588 | 851.2
323.15 K, x2 = 0 | 920.55
323.15 K, x2 = 0.044 | 916.54
323.15 K, x2 = 0.1062 | 910.94
323.15 K, x2 = 0.1721 | 905.1
323.15 K, x2 = 0.2314 | 899.91
323.15 K, x2 = 0.2985 | 894.12
323.15 K, x2 = 0.3647 | 888.5
323.15 K, x2 = 0.4215 | 883.74
323.15 K, x2 = 0.4874 | 878.3
323.15 K, x2 = 0.5484 | 873.34
323.15 K, x2 = 0.6014 | 869.09
323.15 K, x2 = 0.6647 | 864.08
323.15 K, x2 = 0.7314 | 858.9
323.15 K, x2 = 0.7951 | 854.03
323.15 K, x2 = 0.8654 | 848.74
323.15 K, x2 = 0.9321 | 843.83
333.15 K, x2 = 0 | 910.75
333.15 K, x2 = 0.0512 | 906.14
333.15 K, x2 = 0.112 | 900.72
333.15 K, x2 = 0.1784 | 894.89
333.15 K, x2 = 0.2351 | 889.98
333.15 K, x2 = 0.2985 | 884.55
333.15 K, x2 = 0.3514 | 880.08
333.15 K, x2 = 0.4122 | 875
333.15 K, x2 = 0.4841 | 869.09
333.15 K, x2 = 0.5451 | 864.14
333.15 K, x2 = 0.6015 | 859.64
333.15 K, x2 = 0.6641 | 854.71
333.15 K, x2 = 0.7321 | 849.44
333.15 K, x2 = 0.7951 | 844.64
333.15 K, x2 = 0.8621 | 839.62
333.15 K, x2 = 0.9245 | 835.02
343.15 K, x2 = 0 | 900.73
343.15 K, x2 = 0.0632 | 895.11
343.15 K, x2 = 0.1201 | 890.11
343.15 K, x2 = 0.1854 | 884.45
343.15 K, x2 = 0.2554 | 878.46
343.15 K, x2 = 0.3114 | 873.73
343.15 K, x2 = 0.3784 | 868.14
343.15 K, x2 = 0.4552 | 861.82
343.15 K, x2 = 0.5114 | 857.28
343.15 K, x2 = 0.5662 | 852.9
343.15 K, x2 = 0.6212 | 848.55
343.15 K, x2 = 0.6812 | 843.88
343.15 K, x2 = 0.7499 | 838.61
343.15 K, x2 = 0.8021 | 834.67
343.15 K, x2 = 0.8654 | 829.95
343.15 K, x2 = 0.9421 | 824.34
353.15 K, x2 = 0 | 890.48
353.15 K, x2 = 0.0451 | 886.53
353.15 K, x2 = 0.1023 | 881.55
353.15 K, x2 = 0.1654 | 876.13
353.15 K, x2 = 0.2215 | 871.36
353.15 K, x2 = 0.2865 | 865.91
353.15 K, x2 = 0.3412 | 861.36
353.15 K, x2 = 0.4012 | 856.44
353.15 K, x2 = 0.4687 | 850.98
353.15 K, x2 = 0.5214 | 846.76
353.15 K, x2 = 0.5841 | 841.82
353.15 K, x2 = 0.6474 | 836.89
353.15 K, x2 = 0.7142 | 831.77
353.15 K, x2 = 0.7784 | 826.93
353.15 K, x2 = 0.8451 | 821.96
353.15 K, x2 = 0.9012 | 817.86
